Where a name gives a salt, the structure may show the parent alone.
What was measured:
MEK1 [1] = tested on: MEK1
Protocol: ERK2 nucleocytoplasmic shuttling. (a) HEK293ET cells co-expressing C-MEK1-DD and EGFP-ERK2 were illuminated (2 s, 365 nm, 1 mW/cm^2), then 8 minutes after illumination, U0126 (10 μM) was added to block the activity of photoactivated C-MEK1-DD and unveil EGFP-ERK2 efflux from the nucleus. […] Scale bars represent 5 μm. (b) The graph presents the normalized F(n/c) as a function of time after illumination (mean±SD of ten representative cells). The arrow indicates the time when U0126 was added.
To unveil this compensating process and visualize ERK2 nuclear export, we induced EGFP-ERK2 nuclear translocation by C-MEK1-DD photoactivation, and then blocked MEK1-induced ERK2 nuclear translocation by addition of the MEK1 inhibitor U0126.
Live cell imaging—Live cells grown in μ-Dish (Ibidi) were imaged at room temperature with an inverted Zeiss LSM 710 Laser Scanning Microscope equipped with a Plan Apochromat 63×/1.4 oil immersion objective. […] The mean nuclear (Fn) and cytoplasmic (Fc) fluorescence intensities were quantified using ImageJ software to enable the F(n/c) ratio to be determined according to the formula: F(n/c)=(Fn−Fb)/(Fc−Fb), where Fb is the mean background fluorescence intensity.

MEK1 [2] = conditions: C-MEK1-ΔN cells, 10 μM U0126 for 30 min before illumination
Protocol: (a) HEK293ET cells co-transfected with plasmids encoding PCKRS, pyrrolysyl tRNACUA, C-MEK1-ΔN-HA and EGFP-ERK2 (either TEY, lanes 7 and 8; or AAA, lanes 9 and 10) were grown in medium supplemented with 2 mM of amino acid 1 (lanes 8 and 10) or without (lanes 7 and 9) for 24 h. […] (b) HEK293ET cells co-transfected with plasmids encoding PCKRS, pyrrolysyl tRNACUA, EGFP-ERK2 and either A-MEK1-ΔN-HA (lane 2), or D-MEK1-ΔN-HA (lanes 3-6), or C-MEK1-ΔN-HA (lanes 7-10) were grown in medium supplemented with 2 mM of 1 and 0.1% FBS for 24 h. Cells expressing D-MEK1-ΔN-HA and C-MEK1-ΔN-HA were illuminated with a 365 nm LED lamp for 60 s. Cells were lysed 1, 10 and 60 min after illumination. (c) HEK293ET cells co-transfected with plasmids encoding PCKRS, pyrrolysyl tRNACUA, EGFP-ERK2 and either A-MEK1-ΔN-HA (lane 2), or D-MEK1-ΔN-HA (lanes 3, 5, 6, 9, 10, 13, 14, 17, 18) or C-MEK1-ΔN-HA (lanes 4, 7, 8, 11, 12, 15, 16, 19, 20) were grown in medium supplemented with 2 mM of amino acid 1 and 0.1% FBS for 24 h. […]
Immunoblotting—Cells were washed with ice-cold phosphate buffer saline (PBS), then lysed with ice-cold universal lysis buffer (Roche) supplemented with protease inhibitors cocktail (Roche), 1 mM sodium vanadate, 5 mM sodium fluoride and 10 mM EDTA. Samples were resolved by SDS-PAGE and analyzed by immunoblotting with appropriate antibodies after transferring to nitrocellulose membranes.

HEK293 cells [3] = assay: Amber suppression of mCherry-TAG-egfp-ha reporter by PCKRS/PyltRNACUA; type: cell-based, human; conditions: PCKRS/PyltRNACUA pair, 1 mM, Western blot, versus hTyrtRNACUA
Protocol: Adherent human embryonic kidney (HEK)-293 cells were cultured at 37° C. in a 5% CO2 atmosphere in DMEM+GlutaMAX-1 medium (Gibco) supplemented with 10% FBS and 1× pen-strep solution. Cells were transiently transfected with Genejuice (Novagen) according to the manufacturer's protocol. Double transfections were performed using equal amount of both plasmids. Before transfection, medium was replaced by fresh antibiotic-free medium supplemented, when necessary, with the unnatural amino acid (see figure legends for concentrations). Cells were analyzed 24 h after transfection. For western blot analysis, cells were washed with cold PBS, then lysed with universal lysis buffer (Roche) at 4° C. for 10 min. Western Blots were performed using antibodies against HA-tag (Sigma), Flag-tag (Cell signaling), Ds-Red (Clontech) or p53 (Abcam).
For imaging cells expressing mCherry-TAG-EGFP-HA, cells were seeded and transfected in 24-well plates. Laser-scanning confocal microscopy was performed using a Bio-Rad Radiance 2100 system mounted on a Nikon Eclipse TE300 inverted microscope equipped with a Plan Fluor ELWD 20×/0.45 objective. Fluorescence emission was measured between 515-530 nm for EGFP (excitation wavelength: 488 nm) and above 560 nm for mCherry (excitation wavelength: 543 nm).

[4] = Decaging of myoglobin containing 1 by 365 nm photolysis, ESI-MS; type: physicochemical; conditions: myoglobin containing 1, in vitro
Protocol: FIG. 3—A. anti His-tag immunoblot of cell extracts from E. coli cells expressing PCKRS/PyltRNACUA and myoglobin with an amber codon at position 4 (pMyo4TAGHis6) in the presence or absence of 1 mM photocaged lysine 1. B. Coomassie stained gel of Ni-NTA purified sfGFP-his6 from cells containing either the MbPylRS/PyltRNACUA pair and grown with ε-Boc-lysine (BocK) (1 mM), or the PCKRS/PyltRNACUA pair and grown with 1 (5 mM). The unnatural amino acid was introduced into sfGFP in response to an amber codon at position 145. […] C. […] A second peak corresponding to myoglobin with a free lysine is also detected (peak B; obtained mass 18396 Da, expected mass 18395.7 Da). […] D. MS/MS fragmentation of tryptic peptide derived from sfGFP(145-1) (the peptide sequence is shown above the spectrum; MH^+ peptide mass 2145.972 Da). […]
Protein total mass was determined on an LCT time-of-flight mass spectrometer with electrospray ionization (ESI, Micromass). […] Theoretical masses of wild-type proteins were calculated using Protparam (http://us.expasy.org/tools/protparam.html), and theoretical masses for unnatural amino acid containing proteins were adjusted manually.
For the analysis of the uncaging process, purified myoglobin was photolysed at 365 nm with a high power LED source module at 365 nm (Black-led-365, Prizmatix). Protein total mass was then determined as described above.

sfGFP-his6 = assay: Expression of sfGFP-his6 with unnatural amino acid at amber codon 145; type: cell-based, E. coli; conditions: PCKRS/PyltRNACUA pair, 1 (5 mM), amber codon at position 145
Protocol: FIG. 3—A. anti His-tag immunoblot of cell extracts from E. coli cells expressing PCKRS/PyltRNACUA and myoglobin with an amber codon at position 4 (pMyo4TAGHis6) in the presence or absence of 1 mM photocaged lysine 1. B. Coomassie stained gel of Ni-NTA purified sfGFP-his6 from cells containing either the MbPylRS/PyltRNACUA pair and grown with ε-Boc-lysine (BocK) (1 mM), or the PCKRS/PyltRNACUA pair and grown with 1 (5 mM). The unnatural amino acid was introduced into sfGFP in response to an amber codon at position 145. […] C. […] A second peak corresponding to myoglobin with a free lysine is also detected (peak B; obtained mass 18396 Da, expected mass 18395.7 Da). […] D. MS/MS fragmentation of tryptic peptide derived from sfGFP(145-1) (the peptide sequence is shown above the spectrum; MH^+ peptide mass 2145.972 Da). The spectrum confirms the incorporation of 1 at codon 145. The fragmentation sites are illustrated above the spectrum. […] E. ESI-MS analysis of myoglobin produced by PCKRS/PyltRNACUA (with 2 mM 1) after photolysis for 0 min, 1 min and 5 min with 365 nm light (A: caged protein mass 18633.0±1.8 Da, expected mass 18631.7 Da; B: uncaged protein mass 18395.4±0.7 Da, expected mass 18395.7).
To express myoglobin with an incorporated unnatural amino acid, we transformed E. coli DH10B cells with pBKamp-PCKRS and pMyo4TAGPylT-his6. […]

HEK293 cells [5] = assay: Photo-control of p53-EGFP nuclear import, live cell imaging; type: cell-based, human; conditions: photolysis 5 s, 365 nm, 1.2 mW/cm^2; amino acid at position 305 of p53
Protocol: Fluorescence confocal micrographs showing the cellular localization of the EGFP fusions of wild-type p53, p53-K305A. D. Confocal micrographs showing the cellular localization of the EGFP fusions before and 50 min after photolysis (5 s; 365 nm; 1.2 mW/cm^2).
For live cell imaging, cells were seeded and transfected in μ-Dish (Ibidi). Live cells were imaged at room temperature with a Zeiss LSM 710 Laser Scanning Microscope equipped with a Plan Apochromat 63×/1.4 oil immersion objective. […] The mean nuclear (Fn) and cytoplasmic (Fc) fluorescence intensities were quantified using ImageJ software to enable the F(n/c) ratio to be determined according to the formula: F(n/c)=(Fn−Fb)/(Fc−Fb), where Fb is the mean background fluorescence intensity.

MAP kinase pathway = assay: EGFP-ERK2 nuclear translocation upon EGF stimulation; type: cell-based, human; conditions: wild-type MEK1
Protocol: FIG. 16 EGFP-ERK2 nuclear translocation upon EGF stimulation. (a) Montage showing EGFP-ERK2 sub-cellular fluorescence at different time points after activation of co-expressed wt-MEK1 by addition of 100 ng/ml EGF. Scale bars represent 5 μm.
When cells expressing wild-type MEK1 and EGFP-ERK2 are stimulated with 100 ng/ml of epidermal growth factor (EGF) the entire MAP kinase pathway is activated and EGFP-ERK2 is translocated to the nucleus. […] We observe substantial cell-to-cell variability in both the t1/2 for import and the maximal ratio of nuclear to cytoplasmic EGFP-ERK2, and, as previously reported (Cohen-Saidon et al., 2009), we observe less variability in the timing of nuclear import than in the fraction of ERK2 in the nucleus following stimulation (Cohen-Saidon et al., 2009) (FIG. 16c,d). The nuclear accumulation of EGFP-ERK2 peaks and then dissipates to pre-stimulus levels, a well known effect in cellular systems known as exact adaptation (Cohen-Saidon et al., 2009). This effect is not understood in molecular detail for EGF signalling, but must involve cellular processes that compensate for EGF stimulation at some—as yet undefined—point or points in the pathway. […]

EGFP-ERK2 = EGFP-ERK2 nuclear translocation upon photo-activation of caged MEK1, live cell imaging; type: cell-based, human; conditions: resting cells co-expressing EGFP-ERK2, illuminated
Protocol: Cell culture and transfection—Human embryonic kidney 293ET cells were grown at 37° C. in 5% CO2 atmosphere in DMEM+GlutaMAX-1 medium (Gibco) supplemented with 10% fetal bovine serum (FBS) and 1× pen-strep solution for 24 hours before transfection. Cells were transiently transfected with Genejuice (Novagen) according to the manufacturer's protocol. Cells were serum-starved (DMEM with 0.1% FBS) and grown with 2 mM of the photocaged lysine 1 for 24 h before analysis. Growth medium was replaced with fresh 1-free DMEM supplemented with 0.1% FBS before photo-activation experiments.

[6] = tested on: EGFP-ERK2 and endogenous ERK1/2; assay: Immunoblot of ERK, p90RSK and Elk-1 phosphorylation upon photo-activation of caged MEK1; type: cell-based, human
From the text: MEK1 is highly specific for the downstream extracellular signal-regulated protein kinases ERK1 and ERK2, and has no other known substrates (Shaul and Seger, 2007). MEK1 phosphorylates two regulatory residues in ERK1/2, a threonine and a tyrosine, both part of a conserved Thr-Glu-Tyr (TEY) motif (Payne et al., 1991). To verify that the introduction of the photocaged lysine 1 prevents kinase activity, C-MEK1-ΔN was co-expressed with ERK2 fused to an enhanced green fluorescence protein (EGFP-ERK2) in resting HEK293ET cells.
To activate C-MEK1-ΔN we illuminated cells producing the protein for one minute using a 365 nm light-emitting diode (LED) lamp placed underneath the culture plate. This method allows us to illuminate a sufficient number of cells for western blot analysis with monochromatic light that avoids sample heating. […] We observed more phosphorylated EGFP-ERK2 than phosphorylated endogenous ERK1/2. This is consistent with the fact that only a subset of cells contain EGFP-ERK2 and C-MEK1-ΔN, via transfection, while essentially all cells contain endogenous ERK1/2. […] EGFP-ERK2 levels in transfected cells are lower-than or equal to that of the endogenous ERKs. […]

N#CC(=C(/N)Sc1ccccc1N)/C(C#N)=C(\N)Sc1ccccc1N [U0126]
t1/2 of loss of EGFP nuclear fluorescence (MEK1 [1]; 10 μM added 8 min after C-MEK1-DD photoactivation): < 3 min
effect on EGFP-ERK2 nuclear accumulation (MEK1 [1]; 10 μM added before illumination, C-MEK1-DD cells): significantly blocked nuclear accumulation
increase of endogenous phosphorylated p90RSK and Elk-1 after illumination (MEK1 [2]): not observed

CC(OC(=O)NCCCC[C@H](N)C(=O)O)c1cc2c(cc1[N+](=O)[O-])OCO2 (stereo partly drawn) [compound 1, (2S)-2-Amino-6-{([1-(6-nitrobenzo[d][1,3]dioxol-5-yl)ethoxy]carbonylamino}hexanoic acid TFA salt]
efficiency of incorporation (HEK293 cells [3]): comparable to the efficiency of incorporation of tyrosine
decaging upon irradiation with 365 nm light [4]: efficiently decaged
yield of sfGFP-his6 obtained by incorporation (sfGFP-his6): 1 mg/L

N[C@@H](Cc1ccc(O)cc1)C(=O)O [tyrosine]
p53 localization following photolysis (HEK293 cells [5]): did not localize to the nucleus

EGF: Recombinant human epidermal growth factor, purchased from Gibco
lag phase prior to rapid nuclear accumulation of EGFP-ERK2 (MAP kinase pathway; 100 ng/ml EGF): 3 min
t1/2 of EGFP-ERK2 nuclear translocation (MAP kinase pathway; EGF-stimulated activation of the whole pathway, 100 ng/ml): 4.5 min

wt-MEK1: wild-type MEK1 [reference compound]
EGFP-ERK2 nuclear translocation upon illumination (EGFP-ERK2): no nuclear translocation was observed

B1: D-MEK1-ΔN: dead MEK1 with deletion Δ30-49 and mutation K97M (protein, UniProt Q02750 1-393, looked up, variant del30-49 K97M)
Dual specificity …: MPKKKPTPIQLNPAPDGSAVNGTSSAETNLEAFLTQKQKVGELKDDDFEKISELGAGNGGVVFKVSHKPSGLVMARMLIHLEIKPAIRNQIIRELQVLHECNSPYIVGFYGAFYSDGEISICMEHMDGGSLDQVLKKAGRIPEQILGKVSIAVIKGLTYLREKHKIMHRDVKPSNILVNSRGEIKLCDFGVSGQLIDSMANSFVGTRSYMSPERLQGTHYSVQSDIWSMGLSLVEMAVGRYPIPPPDAKELELMFGCQVEGDAAETPPRPRTPGRPLSSYGMDSRPPMAIFELLDYIVNEPPPKLPSGVFSLEFQDFVNKCLIKNPAERADLKQLMVHAFIKRSDAEEVDFAGWLCSTIGLNQPSTPTHAAGV
modifications: HA tag
notes: dead MEK1 with deletion Δ30-49 and mutation K97M
phosphorylation of EGFP-ERK2 or endogenous ERK1/2 after illumination ([6]; 365 nm LED illumination): no detectable phosphorylation
endogenous phosphorylated p90RSK and Elk-1 after illumination ([6]; resting cells co-expressing EGFP-ERK2, 60 s 365 nm): not observed

B2: D-MEK1-DD: catalytically dead MEK1 mutant with S218D, S222D and K97M (protein, UniProt Q02750 1-393, looked up, variant S218D S222D K97M)
Dual specificity …: MPKKKPTPIQLNPAPDGSAVNGTSSAETNLEALQKKLEELELDEQQRKRLEAFLTQKQKVGELKDDDFEKISELGAGNGGVVFKVSHKPSGLVMARMLIHLEIKPAIRNQIIRELQVLHECNSPYIVGFYGAFYSDGEISICMEHMDGGSLDQVLKKAGRIPEQILGKVSIAVIKGLTYLREKHKIMHRDVKPSNILVNSRGEIKLCDFGVSGQLIDDMANDFVGTRSYMSPERLQGTHYSVQSDIWSMGLSLVEMAVGRYPIPPPDAKELELMFGCQVEGDAAETPPRPRTPGRPLSSYGMDSRPPMAIFELLDYIVNEPPPKLPSGVFSLEFQDFVNKCLIKNPAERADLKQLMVHAFIKRSDAEEVDFAGWLCSTIGLNQPSTPTHAAGV
modifications: HA tag
notes: catalytically dead MEK1 mutant with S218D, S222D and K97M
EGFP-ERK2 nuclear translocation upon illumination (EGFP-ERK2): no nuclear translocation was observed

From US20130005019A1, “GENETICALLY ENCODED PHOTO CONTROL” (North Carolina State University, priority 2010, published 2013)
